Data published in US7300946B2, “N-(substituted arylmethyl)-4-(disubstituted methyl) piperidines and pyridines” (Bayer CropScience AG, priority 2002, dated 2007).

System: tobacco budworm (Heliothis virescens [Fabricius])
Assay: surface-treated diet test against the tobacco budworm
Assay type: in vivo
Settings: tobacco budworm second instar larvae, surface-treated diet, 0.25 millimoles of candidate insecticide on the surface of the diet, five-day exposure; for Percent Mortality: compared to total number of insects infested; for Percent Growth Inhibition: inhibition of insect weight relative to untreated controls
Experimental: Candidate insecticides were evaluated for activity against the tobacco budworm (Heliothis virescens [Fabricius]) in a surface-treated diet test.
In this test one mL of molten (65–70° C.) wheat germ-based artificial diet was pipetted into each well of a four by six (24 well) multi-well plate (ID# 430345-15.5 mm dia.×17.6 mm deep; Corning Costar Corp., One Alewife Center, Cambridge, Mass. 02140). The diet was allowed to cool to ambient temperature before treatment with candidate insecticide.
For a determination of insecticidal activity, solutions of the candidate insecticides were prepared for testing using a Packard 204DT Multiprobe® Robotic System (Packard Instrument Company, 800 Research Parkway, Meriden, Conn. 06450), in which the robot first diluted a standard 50 millimolar DMSO solution of candidate insecticide with a 1:1 water/acetone solution (V/V) in a ratio of 1:7 stock solution to water/acetone. The robot subsequently pipetted 40 microliters of the so-prepared solution onto the surface of the diet in each of three wells in the 24 multi-well plate. The process was repeated with solutions of seven other candidate insecticides. Once treated, the contents of the multi-well plate were allowed to dry, leaving 0.25 millimoles of candidate insecticide on the surface of the diet, or a concentration of 0.25 millimolar. Appropriate untreated controls containing only DMSO on the diet surface were also included in this test. […]
In each well of the test plate was placed one second instar tobacco budworm larvea, each weighing approximately five milligrams. After the larvae were placed in each well, the plate was sealed with clear polyfilm adhesive tape. The tape over each well was perforated to ensure an adequate air supply. The plates were then held in a growth chamber at 25° C. and 60% relative humidity for five days (light 14 hours/day).
After the five-day exposure period insecticidal activity for each rate of application of candidate insecticide was assessed as percent inhibition of insect weight relative to the weight of insects from untreated controls, and percent mortality when compared to the total number of insects infested.
The test compounds of formula I are identified by numbers that correspond to those in Table 1.
These tests were conducted with 0.25 millimoles of candidate insecticide on the surface of the diet.

Row | Structure (SMILES) | Percent Mortality | Percent Growth Inhibition
1 | FC(F)(F)c1ccc(C(=C2CCN(Cc3ccccc3)CC2)c2ccccc2)cc1 [Compound 30] | 100% | 54%
2 | Fc1ccc(C(=C2CCN(Cc3ccccc3)CC2)c2ccc(C(F)(F)F)cc2)cc1 [Compound 31] | 17% | 99%
3 | COc1ccc(CN2CCC(=C(c3ccc(OC(F)(F)F)cc3)c3ccc(OC(F)(F)F)cc3)CC2)cc1 [Compound 42] | 100% | 100%
4 | CCCOc1ccc(CN2CCC(=C(c3ccc(O)cc3)c3ccc(O)cc3)CC2)cc1 [Compound 44] | 67% | 100%
5 | CCCOc1ccc(CN2CCC(=C(c3cccc(C(F)(F)F)c3)c3cccc(C(F)(F)F)c3)CC2)cc1 [Compound 45] | 0% | 24%
6 | CCCOc1ccc(CN2CCC(=C(c3cccc(OC(F)(F)F)c3)c3cccc(OC(F)(F)F)c3)CC2)cc1 [Compound 47] | 0% | 11%
7 | CCCOc1ccc(CN2CCC(=C(c3ccc(OC(F)(F)F)cc3)c3ccc(OC(F)(F)F)cc3)CC2)cc1 [Compound 48] | 100% | 100%
8 | CCOC(=O)c1ccc(CN2CCC(=C(c3ccc(C(F)(F)F)cc3)c3ccc(C(F)(F)F)cc3)CC2)cc1 [Compound 50] | 67% | 96%
9 | CC(C)OC(=O)c1ccc(CN2CCC(=C(c3ccc(C(F)(F)F)cc3)c3ccc(C(F)(F)F)cc3)CC2)cc1 [Compound 51] | 0% | 26%
10 | CC(=O)Nc1ccc(CN2CCC(=C(c3ccc(C(F)(F)F)cc3)c3ccc(C(F)(F)F)cc3)CC2)cc1 [Compound 52] | 33% | 100%
11 | O=C(Nc1ccc(CN2CCC(=C(c3ccc(C(F)(F)F)cc3)c3ccc(C(F)(F)F)cc3)CC2)cc1)C(F)(F)F [Compound 53] | 0% | 100%
12 | COC(=O)Nc1ccc(CN2CCC(=C(c3ccc(C(F)(F)F)cc3)c3ccc(C(F)(F)F)cc3)CC2)cc1 [Compound 54] | 100% | 100%
13 | CCOC(=O)Nc1ccc(CN2CCC(=C(c3ccc(C(F)(F)F)cc3)c3ccc(C(F)(F)F)cc3)CC2)cc1 [Compound 55, N-{4-[(4-{bis[4-(trifluoromethyl)phenyl]methylene}piperidyl)methyl]phenyl}ethoxycarboxamide] | 100% | 100%
14 | CCOC(=O)N(C)c1ccc(CN2CCC(=C(c3ccc(C(F)(F)F)cc3)c3ccc(C(F)(F)F)cc3)CC2)cc1 [Compound 56] | 100% | 100%
15 | CCCOC(=O)Nc1ccc(CN2CCC(=C(c3ccc(C(F)(F)F)cc3)c3ccc(C(F)(F)F)cc3)CC2)cc1 [Compound 57] | 100% | 100%
16 | CC(C)OC(=O)Nc1ccc(CN2CCC(=C(c3ccc(C(F)(F)F)cc3)c3ccc(C(F)(F)F)cc3)CC2)cc1 [Compound 58] | 100% | 100%
17 | CC(C)COC(=O)Nc1ccc(CN2CCC(=C(c3ccc(C(F)(F)F)cc3)c3ccc(C(F)(F)F)cc3)CC2)cc1 [Compound 59] | 0% | 59%
18 | CCON=Cc1ccc(CN2CCC(=C(c3ccc(C(F)(F)F)cc3)c3ccc(C(F)(F)F)cc3)CC2)cc1 [Compound 60] | 100% | 100%
19 | FC(F)(F)c1ccc(C(=C2CCN(Cc3ccc(OCc4nccs4)cc3)CC2)c2ccc(C(F)(F)F)cc2)cc1 [Compound 61] | 100% | 100%
20 | Cn1nnc(-c2ccc(CN3CCC(=C(c4ccc(Cl)cc4)c4ccc(C(F)(F)F)cc4)CC3)cc2)n1 [Compound 74] | 100% | 100%
21 | Cn1nnc(-c2ccc(CN3CCC(=C(c4ccc(C(F)(F)F)cc4)c4ccc(C(F)(F)F)cc4)CC3)cc2)n1 [Compound 75] | 100% | 96%
22 | CCn1nnc(-c2ccc(CN3CCC(=C(c4ccccc4)c4ccc(Cl)cc4)CC3)cc2)n1 [Compound 76] | 0% | 91%

Row | Structure (SMILES) | Percent Mortality | Percent Growth Inhibition
23 | CCn1nnc(-c2ccc(CN3CCC(=C(c4ccc(Cl)cc4)c4ccc(Cl)cc4)CC3)cc2)n1 [Compound 77] | 100% | 100%
24 | CCn1nnc(-c2ccc(CN3CCC(=C(c4ccc(F)cc4)c4ccc(F)cc4)CC3)cc2)n1 [Compound 78] | 67% | 100%
25 | CCn1nnc(-c2ccc(CN3CCC(=C(c4ccc(F)cc4)c4ccc(Cl)cc4)CC3)cc2)n1 [Compound 79] | 83% | 100%
26 | CCn1nnc(-c2ccc(CN3CCC(=C(c4ccccc4)c4ccc(C(F)(F)F)cc4)CC3)cc2)n1 [Compound 80] | 33% | 100%
27 | CCn1nnc(-c2ccc(CN3CCC(=C(c4ccc(F)cc4)c4ccc(C(F)(F)F)cc4)CC3)cc2)n1 [Compound 81] | 100% | 100%
28 | CCn1nnc(-c2ccc(CN3CCC(=C(c4ccc(C(F)(F)F)cc4)c4ccc(C(F)(F)F)cc4)CC3)cc2)n1 [Compound 82] | 100% | 100%
29 | CCn1nnc(-c2ccc(CN3CCC(=C(c4ccc5c(c4)OC(F)(F)O5)c4ccc5c(c4)OC(F)(F)O5)CC3)cc2)n1 [Compound 83] | 100% | 100%
30 | O=C(CCN1CCC(=C(c2ccccc2)c2ccccc2)CC1)c1ccccc1 [Compound 85] | 100% | 100%
31 | [O-][N+]1(Cc2ccc(OCC3CC3)cc2)CCC(=C(c2ccc(C(F)(F)F)cc2)c2ccc(C(F)(F)F)cc2)CC1 (centres unmarked) [Compound 98] | 100% | 100%
32 | CCOC(=O)c1ccc(C[N+]2([O-])CCC(=C(c3ccc(C(F)(F)F)cc3)c3ccc(C(F)(F)F)cc3)CC2)cc1 (centres unmarked) [Compound 99] | 100% | 100%
33 | CC(C)OC(=O)c1ccc(C[N+]2([O-])CCC(=C(c3ccc(C(F)(F)F)cc3)c3ccc(C(F)(F)F)cc3)CC2)cc1 (centres unmarked) [Compound 100] | 100% | 100%
34 | CCOC(=O)Nc1ccc(C[N+]2([O-])CCC(=C(c3ccc(C(F)(F)F)cc3)c3ccc(C(F)(F)F)cc3)CC2)cc1 (centres unmarked) [Compound 101, N-{4-[(4-{bis[4-(trifluoromethyl)phenyl]methylene}piperidyl)methyl]phenyl}ethoxycarboxamide, N-oxide] | 100% | 100%
35 | CCCOC(=O)Nc1ccc(C[N+]2([O-])CCC(=C(c3ccc(C(F)(F)F)cc3)c3ccc(C(F)(F)F)cc3)CC2)cc1 (centres unmarked) [Compound 102] | 100% | 100%
36 | CC(C)OC(=O)Nc1ccc(C[N+]2([O-])CCC(=C(c3ccc(C(F)(F)F)cc3)c3ccc(C(F)(F)F)cc3)CC2)cc1 (centres unmarked) [Compound 103] | 100% | 100%
37 | CC(C)COC(=O)Nc1ccc(C[N+]2([O-])CCC(=C(c3ccc(C(F)(F)F)cc3)c3ccc(C(F)(F)F)cc3)CC2)cc1 (centres unmarked) [Compound 104] | 100% | 100%
38 | [O-][N+]1(Cc2ccc(OCc3nccs3)cc2)CCC(=C(c2ccc(C(F)(F)F)cc2)c2ccc(C(F)(F)F)cc2)CC1 (centres unmarked) [Compound 105] | 100% | 100%
39 | [O-][N+]1(Cc2ccc(Oc3ccccn3)cc2)CCC(=C(c2ccc(C(F)(F)F)cc2)c2ccc(C(F)(F)F)cc2)CC1 (centres unmarked) [Compound 106] | 100% | 100%
40 | [O-][N+]1(Cc2ccc(Oc3ccc(Cl)cn3)cc2)CCC(=C(c2ccc(C(F)(F)F)cc2)c2ccc(C(F)(F)F)cc2)CC1 (centres unmarked) [Compound 107] | 100% | 100%
41 | [O-][N+]1(Cc2ccc(Oc3cccc(Cl)n3)cc2)CCC(=C(c2ccc(C(F)(F)F)cc2)c2ccc(C(F)(F)F)cc2)CC1 (centres unmarked) [Compound 108] | 100% | 100%
42 | [O-][N+]1(Cc2ccc(Oc3ncccc3C(F)(F)F)cc2)CCC(=C(c2ccc(C(F)(F)F)cc2)c2ccc(C(F)(F)F)cc2)CC1 (centres unmarked) [Compound 109] | 100% | 100%
43 | N#Cc1ccc(Oc2ccc(C[N+]3([O-])CCC(=C(c4ccc(C(F)(F)F)cc4)c4ccc(C(F)(F)F)cc4)CC3)cc2)nc1 (centres unmarked) [Compound 111] | 100% | 100%
